In assay [1] the test system is muscle injury model rats (incised masseter muscles on both sides). The assay can be described thus: Histological staining of masseter muscles at postoperative week 1, Example 1. The assay is classed as in vivo, Jcl:SD rats. As to conditions: P<0.05, t-test. Here is the method:
Incisions were made in masseter muscles on both sides in Jcl:SD rats (10 weeks old). Immediately after muscle incision, 1 mL each of the SV peptide (20 ng/mL) was intramuscularly administered into several sites surrounding the cut surfaces. The incision on each side was made along a straight line connecting the lateral angle of the eye and the mandibular angle, extending in depth from the fascia on the skin side to the lateral periosteum on the mandibular ramus. The cut surfaces were subjected to electrocoagulation with an electric scalpel for the arrest of bleeding (see FIG. 1).
This experiment was performed on rats subjected to incision of masseter muscles on both sides and subsequent administration of the SV peptide into the incised left masseter muscle without administration into the incised right masseter muscle (control). Each rat was euthanized at postoperative week 1, and the masseter muscles on both sides were excised. Histological sections were prepared by the usual method and subjected to various types of staining. The number of immature muscle fibers with central nuclei, which were muscle fibers involved in muscle repair, and the number of blood vessels were counted on HE-staining specimens. The masseter muscle was divided into upper and lower halves in the coronal plane, and 2 slices each of the upper and lower halves were used for counting. Counting was performed in 5 fields of view in each slice. The area of granulation tissue formed on the cut surfaces was measured on sirius red-staining specimens (type I and type III collagens were stained) using an image-analysis software. The sections were immunostained for myogenin, a marker for myotube cells, and the number of myogenin-positive cells was counted using an image-analysis software.

Assay [2] deals with Human skeletal muscle satellite cells (HskMSCs). In words: Cell proliferative capacity (WST-1 assay). Format: cell-based. The note with it: SV peptide 20 ng/mL; 0-72 hours. The text has this:
Human skeletal muscle satellite cells (HskMSCs) were purchased from ScienCell Research Laboratories and used. The medium used for HskMSC culture was the supplier's recommended medium (Skeletal Muscle Cell Medium containing 5% FBS, Skeletal Muscle Cell Growth Supplement, and penicillin/streptomycin solution).
Human skeletal muscle satellite cells and human skeletal muscle myoblasts were separately seeded at 1.0×10^4 cells/mL in each well of non-treated polystyrene 96-well cell culture plates (Falcon). The SV peptide (20 ng/mL, SV group), the random SV (20 ng/mL, random SV group), or PBS (PBS group) was added to the medium. The plates were cultured at 37° C. in a 5% CO2 atmosphere. After 0, 12, 24, 48, and 72 hours, cell proliferation was assessed using Premix WST-1 Cell Proliferation Assay System (Takara Bio, Japan).
On the technique in general: Tetrazolium dyes change colour on reduction, which living cells bring about.

In assay [3] the test system is Human skeletal muscle myoblasts (HSMMs). In words: Cell migratory capacity (cell-denuded area). The assay is classed as cell-based. The note with it: SV peptide 20 ng/mL. Here is the method: Human skeletal muscle myoblasts (HSMMs) were purchased from Lonza and used. The medium used for HSMM culture was the supplier's recommended medium (Skeletal Muscle Growth Media-2 supplemented with SingleQuots Kit).
Human skeletal muscle satellite cells and human skeletal muscle myoblasts were separately cultured on 60-mm (diameter) dishes (Iwaki) to 100% confluency. From each dish, a 2-mm-wide strip of cells were removed, and the medium was replaced with a medium containing the SV peptide (20 ng/mL, SV group), the random SV (20 ng/mL, random SV group), or PBS (PBS group). Thereafter, culture was continued. Images were taken with a digital camera mounted on a phase-contrast microscope every 12 hours. The cell-denuded area was measured using the image-analysis software ImageJ (NIH, USA). The cell migration percentage was determined by calculating the percentage of reduction in the cell-denuded area relative to the value immediately after cell removal.

Assay [4] concerns muscle injury model rats (incised masseter muscles on both sides). In words: In vivo skeletal muscle forming capability (HE, MyoD, myogenin staining at postoperative week 1), Example 4. Details: species or system Jcl:SD rats. As to the method:
In the same manner as in Example 2, incisions were made in masseter muscles on both sides in Jcl:SD rats (10 weeks old) under anesthesia, and immediately after that, the rats were subjected to administration of 1 mL of the SV peptide (20 ng/mL) or 1 mL of PBS into the incised left masseter muscle without administration into the incised right masseter muscle. The two groups were called “SV group” and “PBS group”. Each rat was euthanized at postoperative week 1, and the masseter muscles on both sides were excised. The masseter muscles were embedded in paraffin and transversally sliced into histological sections by the usual method. The sections were subjected to HE staining, immunostaining with an anti-MyoD antibody and immunostaining with an anti-myogenin antibody. The anti-MyoD antibody used was an anti-mouse MyoD antibody (Abcam), and the anti-myogenin antibody used was an anti-mouse myogenin antibody (Abcam). A biotin-labeled anti-rabbit IgG antibody (DAKO) was used as a secondary antibody.
The area of granulation tissue formed on the cut surfaces was measured on the HE-staining specimens using the image-analysis software ImageJ (NIH, USA). The granulation tissue area ratios in the SV group and the PBS group were separately calculated using the following formula. […]
Images of the MyoD-immunostained specimens were taken with a digital camera mounted on a microscope, and the number of MyoD-positive nuclei in the muscle tissue area extending 2.5 mm on each side of the muscle incision site was counted. The MyoD-positive ratios in the SV group and the PBS group were separately calculated using the following formula. […]
Images of the myogenin-immunostained specimens were taken with a digital camera mounted on a microscope, and the number of myogenin-positive nuclei in the muscle tissue area extending 2.5 mm on each side of the muscle incision site was counted. The myogenin-positive ratios in the SV group and the PBS group were separately calculated using the following formula. […]

For assay [5] the following is noted: Patent Literature 3; cited from earlier work.

Here are results for one substance from patent publication US11077167B2, “Agent for promoting skeletal muscle injury repair” (Osaka University, priority 2017, dated 2021).

Regarding SVVYGLR [SV peptide], in assay [1] (HE staining, SV peptide side vs control side), the “number of muscle fibers with central nuclei” value is listed as “significantly larger on the SV peptide side than that on the control side”. Besides, the “number of blood vessels per field of view” value in assay [1] (HE staining, SV peptide side vs non-administration control side) is on record as “significantly larger on the SV peptide side than that on the control side”. In assay [1] (myogenin immunostaining, SV peptide side vs control side), the “number of myogenin-positive nuclei per field of view” value is recorded as “significantly larger on the SV peptide side than that on the control side”. In assay [1] (sirius red staining, SV peptide side vs control side), the “area of granulation tissue formed on cut surfaces” value is given as “significantly smaller on the SV peptide side than that on the control side”. Moreover, in assay [2], the cell proliferative capacity result is “not enhanced”. In addition, the “cell migratory capacity (cell migration percentage)” value in assay [3] (36 and 48 hours after cell removal) is reported as “significantly different from that in the PBS group or the random SV group”; in assay [3] (24 hours after cell removal and thereafter) it was “higher than that in the PBS group or the random SV group”. In addition, the “granulation tissue area ratio (administration side / non-administration side)” value in assay [4] (HE staining) is given as “significant reduction in granulation tissue formation”. Besides, the “MyoD-positive ratio (administration side / non-administration side)” value in assay [4] (MyoD immunostaining, SV group vs PBS group) is “significant increase of MyoD-positive cells as compared with the PBS group”. Also, the “myogenin-positive ratio (administration side / non-administration side)” value in assay [4] (myogenin immunostaining, SV group vs PBS group) is given as “significant increase of myogenin-positive cells as compared with the PBS group”. Further, the cardiac function entry in assay [5] was “improves cardiac function”.
